Data published in US10408837B2 (priority 2013, dated 2019).
Values joined by “and” are separate entries in the source; they are usually repeats but may differ in a detail not shown here. Identical values can stand only once.

Target: BoNT/E (Clostridium botulinum, UniProt Q00496)

IIIGNLGNEIDTQNRQIDRIMAKAKSKKR [Pep-52]
Relative product: 581 and 511
